Like-named read-outs stand apart in the source and are kept apart here.
Experiments:
JAK1 = JAK1 (Homo sapiens (Human), UniProt P23458); assay: Biochemical kinase assay (33P-ATP filter-binding), JAK1; details: read-out: IC50 JAK1
From the text: (§1) Biochemical Kinase Assay Protocol (JAK)
(§2) Reaction Procedure: • 1. […] Detected kinase activity by filter-binding method.

JAK2 = JAK2 (Homo sapiens (Human), UniProt O60674); assay: Biochemical kinase assay (33P-ATP filter-binding), JAK2; details: read-out: IC50 JAK2
From the text: as §1, §2

[1] = Dog LM (liver microsome) assay; format: in vitro ADME; details: Table 3a; predicted clearance as percent of liver blood flow, 1 μM, 1 mg/ml microsomal protein
Method: Dog LM (Liver Microsome) Assay
The metabolic degradation of the test compound is assayed at 37° C. with pooled liver microsomes from dogs (Beagle). The final incubation volume of 100 μl per time point contains TRIS buffer pH 7.6 at RT (0.1 M), magnesium chloride (5 mM), microsomal protein (1 mg/ml) and the test compound at a final concentration of 1 μM. Following a short preincubation period at 37° C., the reactions were initiated by addition of beta-nicotinamide adenine dinucleotide phosphate, reduced form (NADPH, 1 mM) and terminated by transferring an aliquot into solvent after different time points. Additionally, the NADPH-independent degradation was monitored in incubations without NADPH, terminated at the last time point. The [%] remaining test compound after NADPH independent incubation is reflected by the parameter c (control) (metabolic stability). The quenched incubations are pelleted by centrifugation (10000 g, 5 min). An aliquot of the supernatant is assayed by LC-MS/MS for the amount of parent compound. The half-life (t½ INVITRO) is determined by the slope of the semilogarithmic plot of the concentration-time profile. The intrinsic clearance (CL_[…]) is calculated by considering the amount of protein in the incubation: CL_[…] [μl/min/mg protein]=(Ln 2/(half-life [min]*protein content [mg/ml]))*1000. For better across species comparison the predicted clearance is expressed as percent of the liver blood flow [% QH] in the individual species. In general, high stability (corresponding to low % QH) of the compounds across species is desired.

JAK1, sequence (P23458 whole entry, species assumed): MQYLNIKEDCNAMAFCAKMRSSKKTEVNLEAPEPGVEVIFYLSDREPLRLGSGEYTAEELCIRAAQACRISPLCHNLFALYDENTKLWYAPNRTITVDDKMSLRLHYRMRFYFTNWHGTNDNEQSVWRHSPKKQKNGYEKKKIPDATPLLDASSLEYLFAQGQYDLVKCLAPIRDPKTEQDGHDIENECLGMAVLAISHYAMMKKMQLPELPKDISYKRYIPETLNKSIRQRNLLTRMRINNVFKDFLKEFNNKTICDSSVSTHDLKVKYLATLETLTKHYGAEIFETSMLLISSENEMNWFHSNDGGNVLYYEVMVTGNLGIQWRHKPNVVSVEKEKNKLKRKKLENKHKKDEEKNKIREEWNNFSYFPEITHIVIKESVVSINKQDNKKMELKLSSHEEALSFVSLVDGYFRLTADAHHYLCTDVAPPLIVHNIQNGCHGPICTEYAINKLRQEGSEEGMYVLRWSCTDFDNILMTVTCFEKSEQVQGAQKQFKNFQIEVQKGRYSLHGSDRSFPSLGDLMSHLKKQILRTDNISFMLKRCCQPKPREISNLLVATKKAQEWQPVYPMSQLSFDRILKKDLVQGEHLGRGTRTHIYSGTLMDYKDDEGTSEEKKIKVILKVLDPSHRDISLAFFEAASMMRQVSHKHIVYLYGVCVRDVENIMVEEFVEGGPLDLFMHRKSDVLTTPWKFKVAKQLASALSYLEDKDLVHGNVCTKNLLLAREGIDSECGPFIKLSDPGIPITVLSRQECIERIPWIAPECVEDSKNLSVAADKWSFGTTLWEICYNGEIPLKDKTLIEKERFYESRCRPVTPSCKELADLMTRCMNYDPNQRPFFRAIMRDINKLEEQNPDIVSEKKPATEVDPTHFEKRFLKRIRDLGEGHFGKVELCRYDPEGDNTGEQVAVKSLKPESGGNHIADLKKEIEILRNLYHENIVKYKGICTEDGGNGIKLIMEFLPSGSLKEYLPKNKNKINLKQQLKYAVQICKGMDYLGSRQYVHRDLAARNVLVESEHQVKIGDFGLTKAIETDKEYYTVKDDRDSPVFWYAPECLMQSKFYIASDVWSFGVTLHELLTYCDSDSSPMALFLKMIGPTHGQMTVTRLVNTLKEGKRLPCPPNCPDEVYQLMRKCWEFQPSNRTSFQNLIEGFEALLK
JAK2, sequence (O60674 whole entry, species assumed): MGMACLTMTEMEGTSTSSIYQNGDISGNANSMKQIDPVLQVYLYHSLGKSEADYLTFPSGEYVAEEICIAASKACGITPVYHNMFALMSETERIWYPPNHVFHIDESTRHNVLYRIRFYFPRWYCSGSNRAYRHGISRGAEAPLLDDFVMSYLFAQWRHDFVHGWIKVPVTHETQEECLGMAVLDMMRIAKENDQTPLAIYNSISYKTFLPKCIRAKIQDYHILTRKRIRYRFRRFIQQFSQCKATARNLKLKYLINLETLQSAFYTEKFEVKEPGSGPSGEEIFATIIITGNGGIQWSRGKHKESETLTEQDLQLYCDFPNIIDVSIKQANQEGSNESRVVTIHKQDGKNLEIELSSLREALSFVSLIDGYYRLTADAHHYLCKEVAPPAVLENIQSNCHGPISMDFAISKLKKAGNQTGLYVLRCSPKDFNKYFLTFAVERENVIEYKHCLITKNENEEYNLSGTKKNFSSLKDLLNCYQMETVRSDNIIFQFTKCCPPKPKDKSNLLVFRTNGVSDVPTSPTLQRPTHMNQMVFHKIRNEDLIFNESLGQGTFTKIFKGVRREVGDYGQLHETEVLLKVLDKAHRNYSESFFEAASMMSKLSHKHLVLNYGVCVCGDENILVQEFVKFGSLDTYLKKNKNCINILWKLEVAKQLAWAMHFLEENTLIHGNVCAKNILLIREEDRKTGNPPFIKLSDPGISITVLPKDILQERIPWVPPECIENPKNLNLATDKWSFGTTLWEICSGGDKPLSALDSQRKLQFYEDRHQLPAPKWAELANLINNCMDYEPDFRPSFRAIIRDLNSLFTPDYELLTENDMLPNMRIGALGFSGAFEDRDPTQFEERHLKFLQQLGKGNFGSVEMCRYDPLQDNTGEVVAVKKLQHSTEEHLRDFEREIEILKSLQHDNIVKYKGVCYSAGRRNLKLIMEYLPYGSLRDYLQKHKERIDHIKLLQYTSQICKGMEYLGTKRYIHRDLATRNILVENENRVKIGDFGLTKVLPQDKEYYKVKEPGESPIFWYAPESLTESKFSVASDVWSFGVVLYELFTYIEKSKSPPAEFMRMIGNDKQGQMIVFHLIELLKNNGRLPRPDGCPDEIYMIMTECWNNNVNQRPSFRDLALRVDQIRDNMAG

SMILES | IC50 (JAK1; Table 3a) [nM] | IC50 (JAK2; Table 3a) [nM] | Dog LM QH [1] [%] | IC50 (JAK1; Table 3b, comparator compounds) [nM] | IC50 (JAK2; Table 3b, comparator compounds) [nM]
Cc1cc(Nc2ncc(Cl)c(NC3CCCCC3C#N)n2)cc2c1B(O)OC2 (stereo not drawn) [Example 024, 2-[[5-chloro-2-[(1-hydroxy-7-methyl-3H-2,1-benzoxaborol-5-yl)amino]pyrimidin-4-yl]amino]cyclohexanecarbonitrile] | 5.9 | 11.2 |  |  | 
Cc1cnc(Nc2cc(F)c3c(c2)COB3O)nc1N[C@@H]1COCC[C@H]1C#N (single isomer, unassigned) [Example 029b, (trans)-3-[[2-[(7-fluoro-1-hydroxy-3H-2,1-benzoxaborol-5-yl)amino]-5-methyl-pyrimidin-4-yl]amino]tetrahydropyran-4-carbonitrile] | 4 | 89.8 | <19.9 |  | 
Cc1cnc(Nc2cc(C#N)c3c(c2)COB3O)nc1N[C@H]1CCCC[C@@H]1C#N (single isomer, unassigned) [Example 012b, 5-((4-(((trans)-2-cyanocyclohexyl)amino)-5-methylpyrimidin-2-yl)amino)-1-hydroxy-1,3-dihydrobenzo[c][1,2]oxaborole-7-carbonitrile] | 8.2 | 126 | <19.9 |  | 
CC1=Cc2cc(Nc3ncc(C)c(NC4COCCC4C#N)n3)ccc2OB1O (stereo not drawn) [Example 038, 3-[[2-[(2-hydroxy-3-methyl-1,2-benzoxaborinin-6-yl)amino]-5-methyl-pyrimidin-4-yl]amino]tetrahydropyran-4-carbonitrile] | 1.4 | 23.7 | 50.4 |  | 
Cc1cnc(Nc2ccc3c(c2)C(C(C)C)=CB(O)O3)nc1N[C@H]1COCC[C@@H]1C#N (single isomer, unassigned) [Example 039b, (trans)-3-((2-((2-hydroxy-4-isopropyl-2H-benzo[e][1,2]oxaborinin-6-yl)amino)-5-methylpyrimidin-4-yl)amino)tetrahydro-2H-pyran-4-carbonitrile] | 216 | 2040 | 72.1 |  | 
N#C[C@@H]1CCC[C@H]1Nc1nc(Nc2cc(Cl)c3c(c2)COB3O)ncc1C(F)(F)F (relative stereo) [Example 022, (trans)-2-[[2-[(7-chloro-1-hydroxy-3H-2,1-benzoxaborol-5-yl)amino]-5-(trifluoromethyl)pyrimidin-4-yl]amino]cyclopentanecarbonitrile] | 3.3 | 7.5 |  |  | 
N#C[C@@H]1CCOC[C@H]1Nc1nc(Nc2cc(Cl)c3c(c2)COB3O)ncc1F (relative stereo) [Example 046, (trans)-3-((2-((7-chloro-1-hydroxy-1,3-dihydrobenzo[c][1,2]oxaborol-5-yl)amino)-5-fluoropyrimidin-4-yl)amino) tetrahydro-2H-pyran-4-carbonitrile] | 3.4 | 186 |  |  | 
Cc1cnc(Nc2ccc3c(c2)COB3O)nc1N[C@@H]1COCC[C@H]1C#N (single isomer, unassigned) [Example 026b, (trans)-3-((2-((1-hydroxy-1,3-dihydrobenzo[c][1,2]oxaborol-5-yl)amino)-5-methylpyrimidin-4-yl)amino)tetrahydro-2H-pyran-4-carbonitrile] | 47.1 | 95.3 | <19.9 |  | 
Cc1cnc(Nc2cc(Cl)c3c(c2)COB3O)nc1NC1CCCC[C@@H]1C#N (single isomer, unassigned) [Example 010b, (trans)-2-[[2-[(7-chloro-1-hydroxy-3H-2,1-benzoxaborol-5-yl)amino]-5-methyl-pyrimidin-4-yl]amino]cyclohexanecarbonitrile] |  |  | <19.9 |  | 
N#C[C@@H]1CCCC[C@H]1Nc1nc(Nc2cc(Cl)c3c(c2)COB3O)ncc1F (relative stereo) [Example 020, (trans)-2-[[2-[(7-chloro-1-hydroxy-3H-2,1-benzoxaborol-5-yl)amino]-5 fluoropyrimidin-4-yl]amino]cyclohexanecarbonitrile] | 1.4 | 50.7 |  |  | 
N#C[C@@H]1CCCC[C@H]1Nc1nc(Nc2cc(Cl)c3c(c2)COB3O)ncc1Cl (relative stereo) [Example 019, (trans)-2-((5-chloro-2-((7-chloro-1-hydroxy-1,3-dihydrobenzo[c][1,2]oxaborol-5-yl)amino)pyrimidin-4-yl)amino)cyclohexane-1-carbonitrile] | 0.2 | 3.2 |  |  | 
N#C[C@@H]1CCCC[C@H]1Nc1nc(Nc2cc(Cl)c3c(c2)COB3O)ncc1C(F)(F)F (relative stereo) [Example 021, (trans)-2-((2-((7-chloro-1-hydroxy-1,3-dihydrobenzo[c][1,2]oxaborol-5-yl)amino)-5-(trifluoromethyl)pyrimidin-4-yl)amino)cyclohexanecarbonitrile] | 2.7 | 3.2 |  |  | 
Cc1cnc(Nc2ccc3c(c2)C(C)OB3O)nc1NC1COCCC1C#N (stereo not drawn) [Example 028, (trans)-3-[[2-[(1-hydroxy-3-methyl-3H-2,1-benzoxaborol-5-yl)amino]-5-methyl-pyrimidin-4-yl]amino]tetrahydropyran-4-carbonitrile] | 0.5 | 3.5 |  |  | 
N#C[C@@H]1CCCC[C@H]1Nc1nc(Nc2cc(F)c3c(c2)COB3O)ncc1Cl (relative stereo) [Example 023, (trans)-2-((5-chloro-2-((7 fluoro-1-hydroxy-1,3-dihydrobenzo[c][1,2]oxaborol-5-yl)amino)pyrimidin-4-yl)amino)cyclohexane-1-carbonitrile] | 0.2 | 0.6 |  |  | 
Cc1cnc(Nc2cc3c4c(c2)OCCOB4OC3)nc1NC1CCCCC1C#N (stereo not drawn) [Example 013, (trans)-2-((2-((7,8-dihydro-2H-1,6,9-trioxa-9a-borabenzo[c,d]azulen-4-yl)amino)-5-methylpyrimidin-4-yl)amino)cyclohexane-1-carbonitrile] | 2.6 | 101 |  |  | 
Cc1cnc(Nc2ccc3c(c2)C=CB(O)O3)nc1N[C@@H]1CCCC[C@H]1C#N (relative stereo) [Example 015, (trans)-2-[[2-[(2-hydroxy-1,2-benzoxaborinin-6-yl)amino]-5-methyl-pyrimidin-4-yl]amino]cyclohexanecarbonitrile] | 9 | 103 |  |  | 
Cc1cnc(Nc2cc(Cl)c3c(c2)COB3O)nc1N[C@@H]1COCC[C@H]1C#N (single isomer, unassigned) [Example 031a, (trans)-3-((2-((7-chloro-1-hydroxy-1,3-dihydrobenzo[c][1,2]oxaborol-5-yl)amino)-5-methylpyrimidin-4-yl)amino)tetrahydro-2H-pyran-4-carbonitrile] |  |  | <19.9 |  | 
Cc1cnc(Nc2ccc3c(c2)C=CB(O)O3)nc1N[C@@H]1CCC[C@H]1C#N (relative stereo) [Example 007, (trans)-2-((2-((2-hydroxy-2H-benzo[e][1,2]oxaborinin-6-yl)amino)-5-methylpyrimidin-4-yl)amino)cyclopentane-1-carbonitrile] | 5.3 | 52.6 |  |  | 
OB1OCc2cc(Nc3ncc(F)c(NC4CCCC4)n3)ccc21 [Example C013] |  |  |  | 32.3 | 705
Cc1cnc(Nc2cc(C#N)c3c(c2)COB3O)nc1N[C@@H]1COCC[C@H]1C#N (relative stereo) [Example 045, 5-((4-(((trans)-4-cyanotetrahydro-2H-pyran-3-yl)amino)-5-methylpyrimidin-2-yl)amino)-1-hydroxy-1,3-dihydrobenzo[c][1,2]oxaborole-7-carbonitrile] | 0.5 | 10.6 |  |  | 
N#C[C@@H]1CCOC[C@H]1Nc1nc(Nc2cc(Cl)c3c(c2)COB3O)ncc1Cl (relative stereo) [Example 048, (trans)-3-[[5-chloro-2-[(7-chloro-1-hydroxy-3H-2,1-benzoxaborol-5-yl)amino]pyrimidin-4-yl]amino]tetrahydropyran-4-carbonitrile] | 0.6 | 15.6 |  |  | 
N#C[C@@H]1CCOC[C@H]1Nc1nc(Nc2ccc3c(c2)COB3O)ncc1Cl (relative stereo) [Example 047, (trans)-3-((5-chloro-2-((1-hydroxy-1,3-dihydrobenzo[c][1,2]oxaborol-5-yl)amino)pyrimidin-4-yl)amino)tetrahydro-2H-pyran-4-carbonitrile] | 0.34 | 7.6 |  |  | 
Cc1cnc(Nc2cc(Cl)c3c(c2)COB3O)nc1N[C@H]1CCCC[C@@H]1C#N (single isomer, unassigned) [Example 010b, (trans)-2-[[2-[(7-chloro-1-hydroxy-3H-2,1-benzoxaborol-5-yl)amino]-5-methyl-pyrimidin-4-yl]amino]cyclohexanecarbonitrile] | 22.3 | 811 |  |  | 
Cc1cnc(Nc2cc3c4c(c2)OCCOB4OC3)nc1N[C@@H]1CCC[C@H]1C#N (relative stereo) [Example 004, (trans)-2-((2-((7,8-dihydro-2H-1,6,9-trioxa-9a-borabenzo [cd]azulen-4-yl)amino)-5-methylpyrimidin-4-yl)amino)cyclopentane-1-carbonitrile] | 1.6 | 49.7 |  |  | 

From patent US20240132525A1, “BORON […], CO[…], METHODS AND USES THEREOF” (priority 2022, published 2024)
